Reference: patent US4060634A (Boehringer Mannheim G.m.b.H., priority 1973, dated 1977)

Legend:
[1] = Particle surface area (BET method); assay type: physicochemical; conditions: precipitated or ground glibenclamide product
[2] = Solubility of glibenclamide in water; assay type: physicochemical
blood sugar = conditions: cited from earlier work

SMILES	particle surface area [1] [m^2 /g]	further results
COc1ccc(Cl)cc1C(=O)NCCc1ccc(S(=O)(=O)NC(=O)NC2CCCCC2)cc1 [Example 8, glibenclamide]	5.8	–
COc1ccc(Cl)cc1C(=O)NCCc1ccc(S(=O)(=O)NC(=O)NC2CCCCC2)cc1 [Example 7, glibenclamide]	7.8	–
COc1ccc(Cl)cc1C(=O)NCCc1ccc(S(=O)(=O)NC(=O)NC2CCCCC2)cc1 [Example 5, glibenclamide]	10.3	–
COc1ccc(Cl)cc1C(=O)NCCc1ccc(S(=O)(=O)NC(=O)NC2CCCCC2)cc1 [Example 2, glibenclamide]	9.8	–
COc1ccc(Cl)cc1C(=O)NCCc1ccc(S(=O)(=O)NC(=O)NC2CCCCC2)cc1 [Example 6, glibenclamide]	5.2	–
COc1ccc(Cl)cc1C(=O)NCCc1ccc(S(=O)(=O)NC(=O)NC2CCCCC2)cc1 [glibenclamide, N-4-[2-(5-chloro-2-methoxybenzamido)-ethyl]-phenyl-sulfonyl-N'-cyclohexylurea]	–	solubility in water, pH of minimum [2]: reaches a minimum at a pH of 4; blood sugar lowering action (blood sugar; among sulfonylurea derivatives): greatest hitherto known blood sugar lowering action; side effects (blood sugar; in vivo): lowest degree of side effects

Further lines, with some results ahead:

particle surface area [1] [m^2 /g]	SMILES	further results
6.8	COc1ccc(Cl)cc1C(=O)NCCc1ccc(S(=O)(=O)NC(=O)NC2CCCCC2)cc1 [Example 4, glibenclamide]	–
6.0	COc1ccc(Cl)cc1C(=O)NCCc1ccc(S(=O)(=O)NC(=O)NC2CCCCC2)cc1 [Example 3, glibenclamide]	–
5.79	COc1ccc(Cl)cc1C(=O)NCCc1ccc(S(=O)(=O)NC(=O)NC2CCCCC2)cc1 [Example 1, glibenclamide]	–
